± gives the expanded uncertainty stated by the source.
Columns and labels:
[1] = Crystal; DTA
[2] = Molar enthalpy of transition or fusion; details: Crystal; DSC

Normal melting temperature [1]: 83.0 ± 1.1 °C
Molar enthalpy of transition or fusion [2]: 4.26 ± 0.131 kcal/mol
SMILES: c1ccc2ccccc2c1 [naphthalene]
